Our source for the MIC values is ChEMBL document CHEMBL5365497, “Developing Novel Coumarin-Containing Azoles Antifungal Agents by the Scaffold Merging Strategy for Treating Azole-Resistant Candidiasis” (J Med Chem, 2023).

Usually MIC stands for the lowest concentration that inhibits growth of the organism.

What all share (assay type): functional
Assay [1] has as its system Candida albicans. The experiment in a line: Antifungal activity against Candida albicans CPCC400616 assessed as fungal growth inhibition by CLSI based microdilution method. (In general: Broth dilution looks for growth in wells or tubes with falling amounts of substance.)
The test system of assay [2] is Candida albicans. The experiment in a line: Antifungal activity against Candida albicans SC5314 assessed as fungal growth inhibition by CLSI based microdilution method.
Another assay has as its system Candida parapsilosis. As to the kind of experiment: Antifungal activity against Candida parapsilosis assessed as fungal growth inhibition by CLSI based microdilution method. Particulars: Lodderomyces parapsilosis.
In another assay the test system is Nakaseomyces glabratus. The experiment in a line: Antifungal activity against Candida glabrata assessed as fungal growth inhibition by CLSI based microdilution method.
The next assay deals with Pichia kudriavzevii. As to the kind of experiment: Antifungal activity against Pichia kudriavzevii assessed as fungal growth inhibition by CLSI based microdilution method.
The next assay deals with Candida tropicalis. The experiment in a line: Antifungal activity against Candida tropicalis assessed as fungal growth inhibition by CLSI based microdilution method.
A further assay concerns Cryptococcus neoformans. As to the kind of experiment: Antifungal activity against Cryptococcus neoformans assessed as fungal growth inhibition by CLSI based microdilution method.
Assay [3] has as its system Candida albicans. The experiment in a line: Antifungal activity against fluconazole-resistant Candida albicans CaR assessed as fungal growth inhibition by CLSI based microdilution method.
Assay [4] has as its system Candida albicans. As to the kind of experiment: Antifungal activity against fluconazole-resistant Candida albicans 17# assessed as fungal growth inhibition by CLSI based microdilution method.
The test system of assay [5] is Candida albicans. The experiment in a line: Antifungal activity against fluconazole-resistant Candida albicans 632 assessed as fungal growth inhibition by CLSI based microdilution method.
Assay [6] deals with Candida albicans. As to the kind of experiment: Antifungal activity against fluconazole-resistant Candida albicans 904 assessed as fungal growth inhibition by CLSI based microdilution method.
The test system of assay [7] is Candida albicans. The experiment in a line: Antifungal activity against fluconazole-resistant Candida albicans 901 assessed as fungal growth inhibition by CLSI based microdilution method.

Values after ≈ are worked out from the molar mass of the structure shown.

As for `O=c1ccc2cc(COC(Cn3ccnn3)c3ccc(F)cc3F)ccc2o1` (centres undefined), the MIC with Candida albicans [1] is > 128 µg/mL; in the assay with Candida albicans [2] it was > 128 µg/mL; in the assay on Candida parapsilosis, 128 µg/mL (≈ 334 µM); in the assay on Nakaseomyces glabratus it was > 128 µg/mL; in the assay with Pichia kudriavzevii, > 128 µg/mL; in the assay on Candida tropicalis, > 128 µg/mL. In addition, in the assay with Cryptococcus neoformans, the MIC was > 128 µg/mL.
`O=c1oc2ccc([N+](=O)[O-])cc2cc1COC(Cn1ccnc1)c1ccc(F)cc1F` (centres undefined): the MIC in the assay with Candida albicans [1] was > 128 µg/mL; with Candida albicans [2], > 128 µg/mL; with Candida parapsilosis, 64 µg/mL (≈ 150 µM); with Nakaseomyces glabratus, 32 µg/mL (≈ 74.9 µM); in the assay with Pichia kudriavzevii, 128 µg/mL (≈ 300 µM); with Candida tropicalis, 128 µg/mL (≈ 300 µM). Further, the minimal inhibitory concentration (MIC) with Cryptococcus neoformans stood at 64 µg/mL (≈ 150 µM).
In the case of `OB1OCc2cc(F)ccc21` [TAVABOROLE], the MIC with Candida albicans [3] came out at 16 µg/mL (≈ 105 µM); with Candida albicans [4], 32 µg/mL (≈ 211 µM); in the assay on Candida albicans [5], 16 µg/mL (≈ 105 µM); with Candida albicans [6] it was 16 µg/mL (≈ 105 µM); in the assay with Candida albicans [7] it was 32 µg/mL (≈ 211 µM).
On to `CCC(C)n1ncn(-c2ccc(N3CCN(c4ccc(OCC5COC(Cn6cncn6)(c6ccc(Cl)cc6Cl)O5)cc4)CC3)cc2)c1=O` (centres undefined) [ITRACONAZOLE], for which the MIC was 64 µg/mL (≈ 90.7 µM) with Candida albicans [3]; 128 µg/mL (≈ 181 µM) in the assay on Candida albicans [4]; 64 µg/mL (≈ 90.7 µM) with Candida albicans [5]; > 128 µg/mL in the assay on Candida albicans [6]; > 128 µg/mL in the assay with Candida albicans [7].
As to `O=c1oc2c(Cl)cc(Cl)cc2cc1COC(Cn1ccnc1)c1ccc(F)cc1F` (centres undefined), the MIC in the assay on Candida albicans [1], in the assay on Candida albicans [2], with Candida parapsilosis, in the assay with Nakaseomyces glabratus, with Pichia kudriavzevii and in the assay on Candida tropicalis was > 128 µg/mL each time. The MIC with Cryptococcus neoformans was 64 µg/mL (≈ 142 µM).
In the case of `O=c1ccc2cc(COC(Cn3cncn3)c3ccc(F)cc3F)ccc2o1` (centres undefined), the MIC with Candida albicans [1] worked out at 8 µg/mL (≈ 20.9 µM); in the assay on Candida albicans [2] it was 0.25 µg/mL (≈ 0.652 µM); in the assay with Candida parapsilosis, 4 µg/mL (≈ 10.4 µM); with Nakaseomyces glabratus, 16 µg/mL (≈ 41.7 µM); in the assay on Pichia kudriavzevii, 32 µg/mL (≈ 83.5 µM); in the assay on Candida tropicalis, 64 µg/mL (≈ 167 µM). Also, in the assay on Cryptococcus neoformans, the MIC was determined as 64 µg/mL (≈ 167 µM).
Take `O=c1oc2ccc(F)cc2cc1COC(Cn1ccnc1)c1ccc(Cl)cc1Cl` (centres undefined): the MIC in the assay with Candida albicans [1] worked out at 0.5 µg/mL (≈ 1.15 µM); with Candida albicans [2] it was 0.25 µg/mL (≈ 0.577 µM); in the assay on Candida parapsilosis it was 0.5 µg/mL (≈ 1.15 µM); with Nakaseomyces glabratus, 2 µg/mL (≈ 4.62 µM); in the assay on Pichia kudriavzevii it was 2 µg/mL (≈ 4.62 µM); in the assay with Candida tropicalis it was 64 µg/mL (≈ 148 µM). In addition, the MIC in the assay on Cryptococcus neoformans is 0.5 µg/mL (≈ 1.15 µM).
Take `O=c1ccc2ccc(COC(Cn3ccnn3)c3ccc(F)cc3F)cc2o1` (centres undefined): the MIC in the assay on Candida albicans [1] was > 128 µg/mL; in the assay with Candida albicans [2], > 128 µg/mL; in the assay with Candida parapsilosis, > 128 µg/mL; in the assay with Nakaseomyces glabratus, 128 µg/mL (≈ 334 µM); with Pichia kudriavzevii, > 128 µg/mL; in the assay on Candida tropicalis it was 4 µg/mL (≈ 10.4 µM). Also, the MIC in the assay on Cryptococcus neoformans is > 128 µg/mL.
Turning to `O=c1oc2ccccc2cc1COC(Cn1ccnn1)c1ccc(Cl)cc1Cl` (centres undefined), the MIC in the assay with Candida albicans [1] was 128 µg/mL (≈ 307 µM); with Candida albicans [2], 128 µg/mL (≈ 307 µM); with Candida parapsilosis it was > 128 µg/mL; with Nakaseomyces glabratus it was > 128 µg/mL; with Pichia kudriavzevii, 128 µg/mL (≈ 307 µM); with Candida tropicalis it was > 128 µg/mL. The minimal inhibitory concentration (MIC) with Cryptococcus neoformans was 32 µg/mL (≈ 76.9 µM).
Turning to `O=c1ccc2ccc(COC(Cn3cnnn3)c3ccc(Cl)cc3Cl)cc2o1` (centres undefined), the MIC was > 128 µg/mL in the assay on Candida albicans [1]; > 128 µg/mL in the assay with Candida albicans [2]; 64 µg/mL (≈ 153 µM) in the assay with Candida parapsilosis; 64 µg/mL (≈ 153 µM) in the assay on Nakaseomyces glabratus; > 128 µg/mL with Pichia kudriavzevii; 128 µg/mL (≈ 307 µM) with Candida tropicalis. Besides, the MIC with Cryptococcus neoformans turned out to be 32 µg/mL (≈ 76.7 µM).
For `O=c1ccc2cc(COC(Cn3cncn3)c3ccc(Cl)cc3Cl)ccc2o1` (centres undefined), the MIC in the assay with Candida albicans [1] is 4 µg/mL (≈ 9.61 µM); with Candida albicans [2], 0.25 µg/mL (≈ 0.601 µM); in the assay on Candida parapsilosis, 2 µg/mL (≈ 4.8 µM); in the assay on Nakaseomyces glabratus, 32 µg/mL (≈ 76.9 µM); in the assay with Pichia kudriavzevii, 16 µg/mL (≈ 38.4 µM); in the assay on Candida tropicalis it was 32 µg/mL (≈ 76.9 µM). Moreover, the MIC in the assay on Cryptococcus neoformans was 32 µg/mL (≈ 76.9 µM).
As to `O=c1ccc2ccc(COC(Cn3cnnn3)c3ccc(F)cc3F)cc2o1` (centres undefined), the MIC in the assay with Candida albicans [1] is > 128 µg/mL; in the assay with Candida albicans [2], > 128 µg/mL; in the assay on Candida parapsilosis, 128 µg/mL (≈ 333 µM); in the assay with Nakaseomyces glabratus, 64 µg/mL (≈ 167 µM); in the assay on Pichia kudriavzevii, 32 µg/mL (≈ 83.3 µM); with Candida tropicalis, 64 µg/mL (≈ 167 µM). In the assay with Cryptococcus neoformans, the MIC is 8 µg/mL (≈ 20.8 µM).
For `O=c1ccc2cc(COC(Cn3cnnn3)c3ccc(Cl)cc3Cl)ccc2o1` (centres undefined), the MIC with Candida albicans [1] was found to be 1 µg/mL (≈ 2.4 µM); with Candida albicans [2], 2 µg/mL (≈ 4.79 µM); in the assay on Candida parapsilosis it was 32 µg/mL (≈ 76.7 µM); with Nakaseomyces glabratus it was 16 µg/mL (≈ 38.3 µM); with Pichia kudriavzevii it was 64 µg/mL (≈ 153 µM); in the assay with Candida tropicalis it was 32 µg/mL (≈ 76.7 µM). Moreover, in the assay on Cryptococcus neoformans, the MIC was found to be 128 µg/mL (≈ 307 µM).
For the compound `O=c1oc2ccc(Cl)cc2cc1COC(Cn1ccnc1)c1ccc(Cl)cc1Cl` (centres undefined), the MIC in the assay on Candida albicans [1] stood at 16 µg/mL (≈ 35.6 µM); in the assay with Candida albicans [2], 0.25 µg/mL (≈ 0.556 µM); in the assay with Candida parapsilosis it was 16 µg/mL (≈ 35.6 µM); with Nakaseomyces glabratus, 128 µg/mL (≈ 285 µM); in the assay on Pichia kudriavzevii, 128 µg/mL (≈ 285 µM); in the assay on Candida tropicalis it was 128 µg/mL (≈ 285 µM). The MIC in the assay on Cryptococcus neoformans came to 16 µg/mL (≈ 35.6 µM).
